Measurements taken from patent US9221795B2, “Phosphatidylinositol 3-kinase inhibitors” (Gilead Sciences, Inc., priority 2013, dated 2015).

Tests used:
[1] = Hepatocyte stability (parent drug disappearance in cryopreserved hepatocytes); assay type: in vitro ADME, human; conditions: human, cryopreserved human hepatocytes, human hepatocytes
Experimental: This assay was used to evaluate the metabolic stability of test articles (TA) following incubation in cryopreserved hepatocytes by monitoring parent drug disappearance via LC/MC. The TA was incubated with 1 million hepatocytes/mL at 2 μM substrate in duplicate. The incubation was carried out at 37° C. with 5% CO2 and saturating humidity. Samples were taken at 0, 1, 2, and 4 hours to monitor the disappearance of TA and a half-life (t1/2) was determined. Table 3 below summarizes the human hepatocyte t1/2 values (hours) collected in the Example.

basophils = experiment: Basophil activation in human whole blood (Flow2 CAST kit, CD63 flow cytometry); assay type: cell-based
Experimental: Effect on basophil activation was measured in human whole blood using the Flow2 CAST® kit (Buhlmann Laboratories AG, Baselstrasse, Switzerland) following the protocol provided by the manufacturer with minor modifications. Human whole blood was collected into K2-EDTA venipuncture tubes. Whole blood samples were treated with either DMSO (0.3% final) or a serial dilution of compounds in DMSO for 60 minutes at 37° C. Basophils were then activated either with anti-FcεRI mAb or with fMLP. To activate basophils using the anti-FcεRI mAb; 50 μL of whole blood was mixed with 110 μL of stimulation buffer (B-BAT-STB) and 20 μl of anti-FcεRI (B-BAT-STCON). To activate basophils with fMLP; 50 μL of whole blood was mixed with 80 μL of stimulation buffer (B-BAT-STB) and 50 μL of fMLP (B-CCR-FMLP). Stimulation buffer was used as a negative control. 20 μL of the staining reagent (combination of anti-human CD63-FITC and anti-human CCR3-PE mAbs) was then added to each tube. The tubes were mixed gently and incubated for 25 minutes at 37° C. Subsequently, erythrocytes were lysed and fixed by the addition of 2 mL of lysing solution (B-BAT-LYR) for 10 minutes at room temperature. Cells were pelleted by centrifugation at 1200 rpm for 10 minutes at room temperature in a swing-out rotor. Supernatant was aspirated and cell pellet resuspended in 400 μL of wash buffer. Flow cytometric analysis of the basophil activation was performed on a FC500MPL flow cytometer (Beckman Coulter Inc., Fullerton, Calif.). CCR3-staining and side scatter were applied to gate at least 200 basophils that expressed a high density of CCR3. The percent CD63 positive cells within the gated basophil population were determined in different treatment groups and normalized to the vehicle control (0.3% DMSO) with anti-FcεRI mAb of fMLP stimulus as 100%. Final compound concentration was adjusted to correct for dilution effect of added reagents. The EC50 values were calculated from the analysis of the dose-response curves to a four-parameter equation.

PI3Kδ = PI3Kδ (Homo sapiens (Human), UniProt O00329); experiment: Enzymatic activity of PI3K isoforms, TR-FRET assay (PI3Kδ); assay type: biochemical; conditions: 2× Km ATP, geometric mean if more than one value
Sequence of PI3Kδ (O00329 whole entry, canonical isoform): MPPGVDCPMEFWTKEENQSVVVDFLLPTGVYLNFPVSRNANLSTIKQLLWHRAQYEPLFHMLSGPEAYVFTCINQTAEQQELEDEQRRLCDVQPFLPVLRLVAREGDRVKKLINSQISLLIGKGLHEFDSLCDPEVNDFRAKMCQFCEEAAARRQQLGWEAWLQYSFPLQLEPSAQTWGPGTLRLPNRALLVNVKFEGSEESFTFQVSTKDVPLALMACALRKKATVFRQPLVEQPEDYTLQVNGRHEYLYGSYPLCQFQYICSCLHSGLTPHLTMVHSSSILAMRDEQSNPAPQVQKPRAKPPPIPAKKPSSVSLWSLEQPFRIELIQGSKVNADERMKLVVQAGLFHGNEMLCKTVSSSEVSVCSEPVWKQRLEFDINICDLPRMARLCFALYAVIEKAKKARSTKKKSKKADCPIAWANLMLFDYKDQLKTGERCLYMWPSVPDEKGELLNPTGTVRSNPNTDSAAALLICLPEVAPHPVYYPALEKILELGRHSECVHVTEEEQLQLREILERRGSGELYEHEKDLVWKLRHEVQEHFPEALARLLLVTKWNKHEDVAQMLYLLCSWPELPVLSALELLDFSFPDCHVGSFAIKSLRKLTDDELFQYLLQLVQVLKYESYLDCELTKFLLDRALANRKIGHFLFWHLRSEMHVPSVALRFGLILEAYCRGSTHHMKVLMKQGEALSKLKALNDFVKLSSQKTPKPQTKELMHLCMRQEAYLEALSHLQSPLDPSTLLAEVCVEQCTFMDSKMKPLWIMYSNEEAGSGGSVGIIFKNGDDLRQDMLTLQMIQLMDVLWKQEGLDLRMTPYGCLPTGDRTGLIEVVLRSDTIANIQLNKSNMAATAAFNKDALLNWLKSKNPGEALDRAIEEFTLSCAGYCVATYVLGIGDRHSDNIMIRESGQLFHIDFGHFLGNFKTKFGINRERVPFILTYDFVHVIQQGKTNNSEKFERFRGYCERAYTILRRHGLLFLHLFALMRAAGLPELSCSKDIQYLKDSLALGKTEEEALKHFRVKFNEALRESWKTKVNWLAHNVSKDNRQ
Sequence of PI3Kδ (P27986 whole entry partner, canonical isoform): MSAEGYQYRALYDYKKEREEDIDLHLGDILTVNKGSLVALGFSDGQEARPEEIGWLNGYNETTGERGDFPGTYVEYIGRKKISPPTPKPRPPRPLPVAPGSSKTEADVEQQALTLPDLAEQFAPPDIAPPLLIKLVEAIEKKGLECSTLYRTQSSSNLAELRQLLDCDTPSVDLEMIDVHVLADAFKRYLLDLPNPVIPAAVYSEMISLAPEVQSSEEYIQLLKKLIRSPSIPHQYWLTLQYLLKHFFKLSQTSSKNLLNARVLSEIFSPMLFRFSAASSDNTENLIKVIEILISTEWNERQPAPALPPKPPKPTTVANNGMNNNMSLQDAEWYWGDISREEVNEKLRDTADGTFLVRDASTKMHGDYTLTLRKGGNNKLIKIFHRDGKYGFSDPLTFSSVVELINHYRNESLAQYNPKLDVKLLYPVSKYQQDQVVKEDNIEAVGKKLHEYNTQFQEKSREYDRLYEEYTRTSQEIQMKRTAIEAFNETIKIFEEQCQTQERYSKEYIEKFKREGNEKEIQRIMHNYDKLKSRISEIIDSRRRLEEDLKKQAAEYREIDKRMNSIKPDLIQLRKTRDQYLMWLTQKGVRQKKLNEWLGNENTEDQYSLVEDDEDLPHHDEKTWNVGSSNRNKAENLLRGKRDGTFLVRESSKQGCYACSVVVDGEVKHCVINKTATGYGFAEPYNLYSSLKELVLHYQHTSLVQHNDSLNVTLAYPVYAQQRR
Summary of the method: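 Recombinant heterodimeric PI3Kβ or PI3Kδ (25-50 pM) was run with 2 μM PIP2 and 2× Km ATP (75-500 μM) at pH 7.4, for 30 min at 25° C. PIP3 formation was detected by TR-FRET displacement of labeled PIP3 from Eu-GRP-1. IC50 values in nM come from four-parameter fits, as geometric means.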

[2] = class symbol, 2 μM substrate, 37° C.
[3] = 2 μM substrate, 37° C., Table 3
[4] = Homo sapiens, class symbol, human whole blood, basophils activated with anti-FcεRI mAb or fMLP, percent CD63 positive cells
[5] = Homo sapiens, human whole blood, basophils activated with anti-FcεRI mAb or fMLP, percent CD63 positive cells, geometric mean
[6] = class symbol, human whole blood, basophils activated with anti-FcεRI mAb or fMLP, percent CD63 positive cells
[7] = human whole blood, basophils activated with anti-FcεRI mAb or fMLP, percent CD63 positive cells, geometric mean

half-life at 2 μM [1, 2] [h]	half-life at 2 μM [1, 3] [h]	EC50 (basophils; [4]) [nM]	EC50 (basophils; [5]) [nM]	IC50 (PI3Kδ) [nM]	half-life at 2 μM ([1]; comparison Table 4) [h]	EC50 (basophils; Homo sapiens, basophil activation in human whole blood, comparison Table 4) [nM]	EC50 (basophils; [6]) [nM]	EC50 (basophils; [7]) [nM]	Compound
> 10	> 10	< 1	0.9	0.6	> 10	< 1	–	–	C[C@H](Nc1nc(N)nc(N)c1C#N)c1nc2cccc(Cl)c2c(=O)n1-c1cccnc1 [Compound 1, (S)-2,4-diamino-6-((1-(5-chloro-4-oxo-3-(pyridin-3-yl)-3,4-dihydroquinazolin-2-yl)ethyl)amino)pyrimidine-5-carbonitrile]
> 10	> 10	< 1	0.3	0.4	–	–	–	–	C[C@H](Nc1nc(N)nc(N)c1C#N)c1nc2c(F)ccc(Cl)c2c(=O)n1-c1cccnc1 [Compound 24, (S)-2,4-diamino-6-(1-(5-chloro-8-fluoro-4-oxo-3-(pyridin-3-yl)-3,4-dihydroquinazolin-2-yl)ethylamino)pyrimidine-5-carbonitrile]
> 10	> 10	1 to 10	2	2	–	–	–	–	CC[C@H](Nc1nc(N)nc(N)c1C#N)c1nc2cccc(Cl)c2c(=O)n1-c1cccnc1 [Compound 2, (S)-2,4-diamino-6-(1-(5-chloro-4-oxo-3-(pyridin-3-yl)-3,4-dihydroquinazolin-2-yl)propylamino)pyrimidine-5-carbonitrile]
> 10	> 10	1 to 10	3	2	–	–	–	–	C[C@H](Nc1nc(N)nc(N)c1C#N)c1nc2cccc(C(F)(F)F)c2c(=O)n1-c1cccnc1 [Compound 9, (S)-2,4-diamino-6-(1-(4-oxo-3-(pyridin-3-yl)-5-(trifluoromethyl)-3,4-dihydroquinazolin-2-yl)ethylamino)pyrimidine-5-carbonitrile]
> 10	> 10	1 to 10	1	2	–	–	–	–	C[C@H](Nc1nc(N)nc(N)c1C#N)c1nc2cccc(Cl)c2c(=O)n1-c1cncc(F)c1 [Compound 12, (S)-2,4-diamino-6-(1-(5-chloro-3-(5-fluoropyridin-3-yl)-4-oxo-3,4-dihydroquinazolin-2-yl)ethylamino)pyrimidine-5-carbonitrile]
> 10	> 10	1 to 10	3	3	–	–	–	–	CC[C@H](Nc1nc(N)nc(N)c1C#N)c1nc2cccc(Cl)c2c(=O)n1-c1cncc(F)c1 [Compound 20, (S)-2,4-diamino-6-(1-(5-chloro-3-(5-fluoropyridin-3-yl)-4-oxo-3,4-dihydroquinazolin-2-yl)propylamino)pyrimidine-5-carbonitrile]
> 10	> 10	–	–	0.4	–	–	1 to 10	4	Cc1ccncc1-n1c([C@H](C)Nc2nc(N)nc(N)c2C#N)nc2cccc(Cl)c2c1=O (atropisomer, axis not shown) [Compound 41, (S)-2,4-diamino-6-(1-(5-chloro-3-(4-methylpyridin-3-yl)-4-oxo-3,4-dihydroquinazolin-2-yl)ethylamino)pyrimidine-5-carbonitrile]
> 10	> 10	< 1	0.8	0.7	–	–	–	–	C[C@H](Nc1nc(N)nc(N)c1C#N)c1nc2c(Cl)ccc(Cl)c2c(=O)n1-c1cccnc1 [Compound 23, (S)-2,4-diamino-6-(1-(5,8-dichloro-4-oxo-3-(pyridin-3-yl)-3,4-dihydroquinazolin-2-yl)ethylamino)pyrimidine-5-carbonitrile]

The remaining lines, values behind:

Compound	half-life at 2 μM [1, 2] [h]	half-life at 2 μM [1, 3] [h]	EC50 (basophils; [4]) [nM]	EC50 (basophils; [5]) [nM]	IC50 (PI3Kδ) [nM]	half-life at 2 μM ([1]; comparison Table 4) [h]	EC50 (basophils; Homo sapiens, basophil activation in human whole blood, comparison Table 4) [nM]	EC50 (basophils; [6]) [nM]	EC50 (basophils; [7]) [nM]
Cc1ncc(F)cc1-n1c([C@H](C)Nc2nc(N)nc(N)c2C#N)nc2cccc(Cl)c2c1=O (atropisomer, axis not shown) [Compound 45, (S)-2,4-diamino-6-(1-(5-chloro-3-(5-fluoro-2-methylpyridin-3-yl)-4-oxo-3,4-dihydroquinazolin-2-yl)ethylamino)pyrimidine-5-carbonitrile]	3 to 6	4	1 to 10	7	6	–	–	–	–
N#Cc1c(N)nc(N)nc1N[C@H](c1nc2c(F)ccc(Cl)c2c(=O)n1-c1cncc(F)c1)C1CC1 [Compound 33, (S)-2,4-diamino-6-((5-chloro-8-fluoro-3-(5-fluoropyridin-3-yl)-4-oxo-3,4-dihydroquinazolin-2-yl)(cyclopropyl)methylamino)pyrimidine-5-carbonitrile]	> 10	> 10	1 to 10	5	2	–	–	–	–
Cc1ncccc1-n1c([C@H](C)Nc2nc(N)nc(N)c2C#N)nc2cccc(Cl)c2c1=O (atropisomer, axis not shown) [Compound 39, (S)-2,4-diamino-6-(1-(5-chloro-3-(2-methylpyridin-3-yl)-4-oxo-3,4-dihydroquinazolin-2-yl)ethylamino)pyrimidine-5-carbonitrile]	3 to 6	3	–	–	1	–	–	1 to 10	2
N#Cc1c(N)nc(N)nc1N[C@@H](CC1CC1)c1nc2c(F)ccc(Cl)c2c(=O)n1-c1cccnc1 [Compound 29, (S)-2,4-diamino-6-(1-(5-chloro-8-fluoro-4-oxo-3-(pyridin-3-yl)-3,4-dihydroquinazolin-2-yl)-2-cyclopropylethylamino)pyrimidine-5-carbonitrile]	> 10	> 10	10 to 50	10	8	–	–	–	–
C[C@H](Nc1nc(N)nc(N)c1C#N)c1nc2cccc(Cl)c2c(=O)n1-c1cncc(C(F)F)c1 [Compound 15, (S)-2,4-diamino-6-(1-(5-chloro-3-(5-(difluoromethyl)pyridin-3-yl)-4-oxo-3,4-dihydroquinazolin-2-yl)ethylamino)pyrimidine-5-carbonitrile]	> 10	> 10	10 to 50	19	4	–	–	–	–
N#Cc1c(N)nc(N)nc1N[C@H](c1nc2c(F)ccc(Cl)c2c(=O)n1-c1cccnc1)C1CC1 [Compound 27, (S)-2,4-diamino-6-((5-chloro-8-fluoro-4-oxo-3-(pyridin-3-yl)-3,4-dihydroquinazolin-2-yl)(cyclopropyl)methylamino)pyrimidine-5-carbonitrile]	> 10	> 10	< 1	0.7	1	–	–	–	–
N#Cc1c(N)nc(N)nc1N[C@H](c1nc2c(Cl)ccc(Cl)c2c(=O)n1-c1cccnc1)C1CC1 [Compound 28, (S)-2,4-diamino-6-(cyclopropyl(5,8-dichloro-4-oxo-3-(pyridin-3-yl)-3,4-dihydroquinazolin-2-yl)methylamino)pyrimidine-5-carbonitrile]	6 to 10	9	1 to 10	4	0.6	–	–	–	–
COc1cncc(-n2c([C@H](C)Nc3nc(N)nc(N)c3C#N)nc3cccc(Cl)c3c2=O)c1 [Compound 14, (S)-2,4-diamino-6-(1-(5-chloro-3-(5-methoxypyridin-3-yl)-4-oxo-3,4-dihydroquinazolin-2-yl)ethylamino)pyrimidine-5-carbonitrile]	6 to 10	8	1 to 10	3	4	–	–	–	–
